Measurements reported in ChEMBL document CHEMBL1201862, “PubChem BioAssay data set” (2004).
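Grown in 96-well plates, cells were treated for 48 hours with each compound at five concentrations. Insufficient inhibition: endpoint recorded as highest concentration tested. The concentration for 50% growth inhibition is given as GI50.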 Activity calls are given as the source filed them. No stated cut-off is given here; in the data, active = GI50 up to about 1.1 µM and inactive = higher.

What was measured:
Experiment in all cases: inhibition of tumour cell growth, NCI panel, 48 h
TK-10 = system: TK-10
CCRF-CEM = system: CCRF-CEM
EKVX = system: EKVX
Hs-578T = system: Hs-578T
HOP-62 = system: HOP-62
CAKI-1 = system: CAKI-1
K562 = system: K562
MDA-MB-435 = system: MDA-MB-435
A498 = system: A498
MCF7 = system: MCF7
SF-539 = system: SF-539
SK-MEL-28 = system: SK-MEL-28
SW-620 = system: SW-620
NCI-H226 = system: NCI-H226
MDA-MB-231 = system: MDA-MB-231
OVCAR-5 = system: OVCAR-5
SF-295 = system: SF-295
A549 = system: A549
Malme-3M = system: Malme-3M
M14 = system: M14
NCI-H460 = system: NCI-H460
NCI-H522 = system: NCI-H522
U-251 = system: U-251
HL-60 = system: HL-60
MOLT-4 = system: MOLT-4
ACHN = system: ACHN
786-0 = system: 786-0
LOX IMVI = system: LOX IMVI
HCT-116 = system: HCT-116
OVCAR-3 = system: OVCAR-3
HCC 2998 = system: HCC 2998
SK-MEL-5 = system: SK-MEL-5
KM12 = system: KM12
BT-549 = system: BT-549
UO-31 = system: UO-31
UACC-62 = system: UACC-62
RXF 393 = system: RXF 393
DU-145 = system: DU-145
COLO 205 = system: COLO 205
OVCAR-4 = system: OVCAR-4
SNB-19 = system: SNB-19
HT-29 = system: HT-29
T47D = system: T47D
SF-268 = system: SF-268
NCI-H23 = system: NCI-H23
HOP-92 = system: HOP-92
IGROV-1 = system: IGROV-1
RPMI-8226 = system: RPMI-8226
HCT-15 = system: HCT-15
SR = system: SR
UACC-257 = system: UACC-257
SK-OV-3 = system: SK-OV-3
SN12C = system: SN12C
SK-MEL-2 = system: SK-MEL-2
MDA-N = system: MDA-N
PC-3 = system: PC-3
SNB-75 = system: SNB-75

## Fc1ccc(/N=N/N2CCCC2)cc1
TK-10
  GI50: 62.4 µM (inactive)
CCRF-CEM
  GI50: 52.2 µM (inactive)
EKVX
  GI50: > 100 µM (inactive)
Hs-578T
  GI50: > 100 µM (inactive)
HOP-62
  GI50: > 100 µM (inactive)
CAKI-1
  GI50: > 100 µM (inactive)
K562
  GI50: 4.66 µM (inactive)
MDA-MB-435
  GI50: 37.2 µM (inactive)
A498
  GI50: > 100 µM (inactive)
MCF7
  GI50: 77.8 µM (inactive)
SF-539
  GI50: > 100 µM (inactive)
SK-MEL-28
  GI50: 94 µM (inactive)
SW-620
  GI50: > 100 µM (inactive)
NCI-H226
  GI50: > 100 µM (inactive)
MDA-MB-231
  GI50: > 100 µM (inactive)
OVCAR-5
  GI50: > 100 µM (inactive)
SF-295
  GI50: 8.04 µM (inactive)
A549
  GI50: > 100 µM (inactive)
Malme-3M
  GI50: > 100 µM (inactive)
M14
  GI50: > 100 µM (inactive)
NCI-H460
  GI50: 15.7 µM (inactive)
NCI-H522
  GI50: > 100 µM (inactive)
U-251
  GI50: > 100 µM (inactive)
HL-60
  GI50: 50.4 µM (inactive)
MOLT-4
  GI50: 32.1 µM (inactive)
ACHN
  GI50: 68.4 µM (inactive)
786-0
  GI50: > 100 µM (inactive)
LOX IMVI
  GI50: 4.94 µM (inactive)
HCT-116
  GI50: 85.7 µM (inactive)
OVCAR-3
  GI50: > 100 µM (inactive)
HCC 2998
  GI50: 15.5 µM (inactive)
SK-MEL-5
  GI50: 33.9 µM (inactive)
KM12
  GI50: 92.3 µM (inactive)
BT-549
  GI50: 41.8 µM (inactive)
UO-31
  GI50: 27 µM (inactive)
UACC-62
  GI50: 7.08 µM (inactive)
RXF 393
  GI50: > 100 µM (inactive)
DU-145
  GI50: 52.5 µM (inactive)
COLO 205
  GI50: > 100 µM (inactive)
OVCAR-4
  GI50: > 100 µM (inactive)
SNB-19
  GI50: > 100 µM (inactive)
HT-29
  GI50: > 100 µM (inactive)
T47D
  GI50: 19.2 µM (inactive)
SF-268
  GI50: > 100 µM (inactive)
NCI-H23
  GI50: > 100 µM (inactive)
HOP-92
  GI50: > 100 µM (inactive)
IGROV-1
  GI50: 82.4 µM (inactive)
RPMI-8226
  GI50: 22.3 µM (inactive)
HCT-15
  GI50: 25.2 µM
SR
  GI50: 28.4 µM (inactive)
UACC-257
  GI50: 57.4 µM (inactive)
SK-OV-3
  GI50: > 100 µM (inactive)
SN12C
  GI50: 51.1 µM (inactive)
SK-MEL-2
  GI50: > 100 µM (inactive)
MDA-N
  GI50: 32.4 µM (inactive)

## C[C@H]1S[C@H](c2c(Cl)cccc2Cl)N2Cc3ccccc3N=C12
TK-10
  GI50: 17 µM (inactive)
CCRF-CEM
  GI50: 21 µM (inactive)
EKVX
  GI50: 10.2 µM (inactive)
Hs-578T
  GI50: 10.8 µM (inactive)
HOP-62
  GI50: 14 µM (inactive)
CAKI-1
  GI50: 40.6 µM (inactive)
K562
  GI50: 25.7 µM (inactive)
MDA-MB-435
  GI50: 14.3 µM (inactive)
A498
  GI50: 24.5 µM (inactive)
MCF7
  GI50: 14.2 µM (inactive)
SF-539
  GI50: 14.7 µM (inactive)
SW-620
  GI50: 25.1 µM (inactive)
MDA-MB-231
  GI50: 23.9 µM (inactive)
OVCAR-5
  GI50: 12 µM (inactive)
SF-295
  GI50: 9.16 µM (inactive)
A549
  GI50: 15.2 µM (inactive)
M14
  GI50: 11.6 µM (inactive)
NCI-H460
  GI50: 11.3 µM (inactive)
U-251
  GI50: 23.4 µM (inactive)
HL-60
  GI50: 5.9 µM (inactive)
MOLT-4
  GI50: 8.83 µM (inactive)
ACHN
  GI50: 12.4 µM (inactive)
786-0
  GI50: 8.49 µM (inactive)
LOX IMVI
  GI50: 12.9 µM (inactive)
HCT-116
  GI50: 4.35 µM (inactive)
OVCAR-3
  GI50: 11.4 µM (inactive)
HCC 2998
  GI50: 14.4 µM (inactive)
SK-MEL-5
  GI50: 10.2 µM (inactive)
PC-3
  GI50: 14.5 µM (inactive)
KM12
  GI50: 12 µM (inactive)
BT-549
  GI50: 28.2 µM (inactive)
UO-31
  GI50: 12.4 µM (inactive)
UACC-62
  GI50: 9.82 µM (inactive)
RXF 393
  GI50: 14.1 µM (inactive)
DU-145
  GI50: 13.1 µM (inactive)
COLO 205
  GI50: 11.1 µM (inactive)
OVCAR-4
  GI50: 29.8 µM (inactive)
SNB-19
  GI50: 10.3 µM (inactive)
T47D
  GI50: 12.4 µM (inactive)
SNB-75
  GI50: 14.1 µM (inactive)
SF-268
  GI50: 14.2 µM (inactive)
NCI-H23
  GI50: 11 µM (inactive)
HOP-92
  GI50: 17.9 µM (inactive)
IGROV-1
  GI50: 12.1 µM (inactive)
RPMI-8226
  GI50: 16 µM (inactive)
HCT-15
  GI50: 14.9 µM
SR
  GI50: 8.07 µM (inactive)
UACC-257
  GI50: 16.6 µM (inactive)
SK-OV-3
  GI50: 17.7 µM (inactive)
SN12C
  GI50: 29.2 µM (inactive)
SK-MEL-2
  GI50: 10.1 µM (inactive)
MDA-N
  GI50: 21 µM (inactive)
